Source: patent US10624895B2, “Methods of sensitizing a patient with glioma to a therapeutic agent by administering small hairpin RNA targeting PDZ-RHOGEF” (THE TRANSLATIONAL GENOMICS RESEARCH INSTITUTE, priority 2016, dated 2020)

Tests used:
[1] = test system: TNFR1; test: Western blot of TNFR1 expression after PPF treatment; assay type: cell-based, human; settings: T98G, GBM10, GBM43 cells, 5 μM PPF, 24 hours
Protocol: (§1) FIG. 24A—a Western blot analysis of TROY expression in T98G cells. Cells were treated with PPF at indicated concentrations for 6 hrs, lysed, and cell lysates immunoblotted with anti-TROY antibody. Immunoblotting of α-Tubulin in cell lysates is included as a loading control. FIG. 24B—Western blot analysis of TROY expression in T98G, GBM43, and GBM10 cells. Cells were treated with PPF at indicated concentrations for 24 hrs, lysed, and cell lysates immunoblotted with anti-TROY and α-Tubulin antibodies. FIG. 24C—Western Blot analysis of TROY expression in GBM10 and GBM43 primary glioma cells. Cells were treated with 5 μM PPF, lysed at the indicated time-points, and the lysates immunoblotted with an anti-TROY antibody. Immunoblotting of β-Actin in cell lysates is included as a loading control. FIG. […]—Western Blot analysis of T98G, GBM10 and GBM43 glioma cells treated with 5 μM PPF for 24 hours. […]
(§2) Referring now to FIGS. 24A, 24B, 24C, and 24D: The inventors investigated if PPF could be utilized pharmacologically to decrease TROY expression in GBM cells. […] Cells were treated with increasing concentration of PPF, 1 to 20 μM lysed, and TROY expression assessed by immunobloting. […] Protein concentrations were determined using the BCA Assay (Pierce). […] Protein bands were detected using SuperSignal® Chemiluminescent Substrate (Pierce) with a UVP BioSpectrum 500 Imaging System.

[2] = test system: microglia; settings: by decreasing TROY expression; cited from earlier work
[3] = test system: T98G, GBM10, and GBM43 cells; test: Cell proliferation by automated cell counting; assay type: cell-based, human; settings: 5, 50, 500 μM PPF, up to 144 hours
Protocol: (§3) FIG. 25A—T98G, GBM43, and GBM10 cells were incubated with increasing concentrations of PPF (0, 5, 50, and 500 After 0, 48, 96 and 144 hours of treatment, cell were trypsinized and counted using an automated cell counter. FIG. 25B—GBM43, GBM10, and T98G glioma cells were treated with increasing doses of PPF (0.5, 1, 5, 10, and 20 μM) in triplicate. The CellTiterGlo® (Promega) reagent was used to measure survival. Raw values were normalized on a plate-by-plate basis such that 100% cell viability was equivalent to the mean of vehicle wells and 0% cell viability was equivalent to the mean of the MG132 positive control. The normalized data was used to assess viability of glioma cells after PPF treatment.
(§4) Referring now to FIGS. 25A and 25B: To determine if PPF influences glioma cell proliferation, the inventors treated T98G, GBM10, and GBM43 cells with increasing concentrations of PPF and evaluated cell proliferation over the course of 144 hours. Briefly, 1.25×10^5 cells were seeded (n=3) in 12-well plates in 1 mL of DMEM supplemented with 10% FBS and allowed to attach at 37° C. for 16 hrs. […] After 0, 48, 96 and 144 hours of treatment, the cells were trypsinized and counted using the automated cell counter. […] Subsequently, 100 μL of CellTiterGlo® reagent was added to each well and luminescence was measured using Envision Reader. […]

[4] = test system: T98G, GBM10, and GBM43 cells; test: CellTiterGlo cytotoxicity assay; assay type: cell-based, human; settings: 0.5 to 20 μM PPF, 72 hours
Protocol: as §3, §4

[5] = test system: T98G cells; test: EGF-stimulated transwell migration assay; assay type: cell-based, human; settings: serum starved T98G, PPF one hour prior to EGF (10 ng/mL), 24 hours
Protocol: FIG. 33 depicts the impact of PPF treatment on EGF-stimulated glioma cell migration. Serum starved T98G cells were treated with PPF at various concentrations one hour prior to EGF addition (10 ng/mL). Cell migration was assessed using the transwell migration assay after 24 hours. *p<0.001; **p<0.01.
Thus, the capacity of TROY to stimulate glioma cell invasion and increase TMZ and IR resistance could rely on the formation of a TROY-EGFR signaling complex. This association could activate, or potentiate, shared signaling pathways survival pathways as well as activate distinct TROY signaling pathways that mediate TROY receptor specific functional activities. Therefore, therapeutic approaches targeting TROY and/or both receptors may yield increased therapeutic benefit.

[6] = clinical trials for Alzheimer's disease and vascular dementia; cited from earlier work
[7] = test system: EGFR; test: Western blot of EGFR expression after PPF treatment; assay type: cell-based, human; settings: T98G, GBM10, GBM43 cells, 5 μM PPF, 24 hours
Protocol: as §1, §2

For `CCCn1cnc2c1c(=O)n(CCCCC(C)=O)c(=O)n2C` [PPF, 3-methyl-1-(5-oxohexyl)-7-propyl-3,7-dihydro-1H-purine-2,6-dione], which TNFR1 expression [1] is on record?
Its TNFR1 expression is “did not affect the expression”.

What about the migration of microglia [2] of the same compound?
Its migration of microglia is “inhibit the migration of microglia”.

What about the glioma cell proliferation [3] of the same compound?
Its glioma cell proliferation is “did not affect the proliferation”.

What about the cell viability [4] of the same compound?
Its cell viability is “negligible loss of cell viability”.

And the “EGF-stimulated glioma cell migration” value [5]?
Its value is “reduced EGF-stimulated glioma cell migration”.

And the side effect profile [6]?
Its side effect profile is “minimal side effect profile”.

What about the EGFR expression [7] of the same compound?
Its EGFR expression is “did not affect the expression”.
